Drawing on US10004701B2, “Methods and compositions for treating infection” (UNIVERSITY OF ROCHESTER, priority 2012, dated 2018), this text covers fold induction for 9 molecules.

Common to all, as to assay: AK assay 384-well format, Prestwick library screening
Assay [1] deals with E. faecium. The assay is classed as cell-based, Enterococcus faecium. As to conditions: Enterococcus faecium, 3 h, 50 μM final drug concentration.
The test system of assay [2] is S. aureus strain USA300-0114. The assay is classed as cell-based, Staphylococcus aureus. The settings on record: Staphylococcus aureus, USA300, 3 h, 50 μM final drug concentration.
Assay [3] deals with K. pneumoniae. The class given is cell-based, Klebsiella pneumoniae. The settings on record: Klebsiella pneumoniae, 3 h, 50 μM final drug concentration.
Assay [4] concerns A. baumannii strain 98-37-09. The class given is cell-based, Acinetobacter baumannii. As to conditions: Acinetobacter baumannii, 983709, 3 h, 50 μM final drug concentration.
The test system of assay [5] is P. aeruginosa. The assay is classed as cell-based, Pseudomonas aeruginosa. As to conditions: Pseudomonas aeruginosa, 3 h, 50 μM final drug concentration.
Assay [6] deals with E. cloacae. The class given is cell-based, Enterobacter cloacae. As to conditions: Enterobacter cloacae, 3 h, 50 μM final drug concentration.
Assay [7] concerns E. coli. The class given is cell-based, Escherichia coli. As to conditions: Escherichia coli, 3 h, 50 μM final drug concentration.
Where [8] appears, read: planktonic, cutoff for positive 3-fold increase, read-out: AK-based Prestwick Library Screening Results, E. faecium (fold increase in extracellular AK activity).
[9] abbreviates: planktonic, cutoff for positive 3-fold increase, read-out: AK-based Prestwick Library Screening Results, S. aureus (fold increase in extracellular AK activity).
The mark [10] stands for this setting: planktonic, cutoff for positive 3-fold increase, read-out: AK-based Prestwick Library Screening Results, K. pneumoniae (fold increase in extracellular AK activity).
Where [11] appears, read: planktonic, cutoff for positive 3-fold increase, read-out: AK-based Prestwick Library Screening Results, A. baumannii (fold increase in extracellular AK activity).
[12] abbreviates: planktonic, cutoff for positive 3-fold increase, read-out: AK-based Prestwick Library Screening Results, P. aeruginosa (fold increase in extracellular AK activity).
Setting [13] is: planktonic, cutoff for positive 3-fold increase, read-out: AK-based Prestwick Library Screening Results, E. cloacae (fold increase in extracellular AK activity).
Where [14] appears, read: planktonic, cutoff for positive 3-fold increase, read-out: AK-based Prestwick Library Screening Results, E. coli (fold increase in extracellular AK activity).
[15] abbreviates: planktonic E. faecium, positive cutoff 3-fold increase, read-out: AK-based Prestwick library screening result, E. faecium (fold increase in extracellular AK activity).
[16] abbreviates: planktonic S. aureus, positive cutoff 3-fold increase, read-out: AK-based Prestwick library screening result, S. aureus (fold increase in extracellular AK activity).
Setting [17] is: planktonic K. pneumoniae, positive cutoff 3-fold increase, read-out: AK-based Prestwick library screening result, K. pneumoniae (fold increase in extracellular AK activity).
Setting [18] is: planktonic A. baumannii, positive cutoff 3-fold increase, read-out: AK-based Prestwick library screening result, A. baumannii (fold increase in extracellular AK activity).
[19] abbreviates: planktonic P. aeruginosa, positive cutoff 3-fold increase, read-out: AK-based Prestwick library screening result, P. aeruginosa (fold increase in extracellular AK activity).
Setting [20] is: planktonic E. cloacae, positive cutoff 3-fold increase, read-out: AK-based Prestwick library screening result, E. cloacae (fold increase in extracellular AK activity).
Setting [21] is: planktonic E. coli, positive cutoff 3-fold increase, read-out: AK-based Prestwick library screening result, E. coli (fold increase in extracellular AK activity).

Where a name gives a salt, the structure may show the parent alone. Read-outs that look alike come from different tables or passages of the source.

Regarding `CC(C)(Sc1cc(C(C)(C)C)c(O)c(C(C)(C)C)c1)Sc1cc(C(C)(C)C)c(O)c(C(C)(C)C)c1` [Probucol], the fold induction at 50 µM in assay [1] (setting [8]) came out at 0.9; in assay [2] (setting [9]) it was 0.6; in assay [3] (setting [10]), 0.9; in assay [4] (setting [11]), 1.4; in assay [5] (setting [12]), 1.1; in assay [6] (setting [13]), 1.3. In addition, the fold induction at 50 µM in assay [7] (setting [14]) was 1.1.

As for `CCN(CC)CCNC(=O)c1ccc(N)cc1` [Procainamide hydrochloride], the fold induction at 50 µM in assay [1] (planktonic E. faecium, cutoff for positive-scoring molecules 3-fold increase, read-out: AK-based Prestwick Library Screening Results, E. faecium (increase in extracellular AK activity)) amounted to 1; in assay [2] (planktonic S. aureus, cutoff for positive-scoring molecules 3-fold increase, read-out: AK-based Prestwick Library Screening Results, S. aureus (increase in extracellular AK activity)), 0.6; in assay [3] (planktonic K. pneumoniae, cutoff for positive-scoring molecules 3-fold increase, read-out: AK-based Prestwick Library Screening Results, K. pneumoniae (increase in extracellular AK activity)), 0.6; in assay [4] (planktonic A. baumannii, cutoff for positive-scoring molecules 3-fold increase, read-out: AK-based Prestwick Library Screening Results, A. baumannii (increase in extracellular AK activity)), 0.7; in assay [5] (planktonic P. aeruginosa, cutoff for positive-scoring molecules 3-fold increase, read-out: AK-based Prestwick Library Screening Results, P. aeruginosa (increase in extracellular AK activity)), 0.6; in assay [6] (planktonic E. cloacae, cutoff for positive-scoring molecules 3-fold increase, read-out: AK-based Prestwick Library Screening Results, E. cloacae (increase in extracellular AK activity)), 0.9. For the same molecule, the fold induction at 50 µM in assay [7] (planktonic E. coli, cutoff for positive-scoring molecules 3-fold increase, read-out: AK-based Prestwick Library Screening Results, E. coli (increase in extracellular AK activity)) was 0.6.

On to `CCN(CC)CCOC(=O)c1ccc(N)cc1` [Procaine hydrochloride], for which the fold induction at 50 µM in assay [1] (384-well format, cutoff for positive-scoring molecules 3-fold increase, read-out: AK-based Prestwick Library Screening Results, E. faecium (increase in extracellular AK activity)) worked out at 0.9; in assay [2] (384-well format, cutoff for positive-scoring molecules 3-fold increase, read-out: AK-based Prestwick Library Screening Results, S. aureus (increase in extracellular AK activity)), 1.2; in assay [3] (384-well format, cutoff for positive-scoring molecules 3-fold increase, read-out: AK-based Prestwick Library Screening Results, K. pneumoniae (increase in extracellular AK activity)), 1; in assay [4] (384-well format, cutoff for positive-scoring molecules 3-fold increase, read-out: AK-based Prestwick Library Screening Results, A. baumannii (increase in extracellular AK activity)), 1.1; in assay [5] (384-well format, cutoff for positive-scoring molecules 3-fold increase, read-out: AK-based Prestwick Library Screening Results, P. aeruginosa (increase in extracellular AK activity)) it was 1; in assay [6] (384-well format, cutoff for positive-scoring molecules 3-fold increase, read-out: AK-based Prestwick Library Screening Results, E. cloacae (increase in extracellular AK activity)), 1.4. Further, in assay [7] (384-well format, cutoff for positive-scoring molecules 3-fold increase, read-out: AK-based Prestwick Library Screening Results, E. coli (increase in extracellular AK activity)), the fold induction at 50 µM worked out at 1.2.

`CNNCc1ccc(C(=O)NC(C)C)cc1` [Procarbazine hydrochloride]: the fold induction at 50 µM in assay [1] (setting [15]) amounted to 1; in assay [2] (setting [16]) it was 1.1; in assay [3] (setting [17]) it was 1.1; in assay [4] (setting [18]), 1.1; in assay [5] (setting [19]), 0.9; in assay [6] (setting [20]) it was 1.7. For the same molecule, the fold induction at 50 µM in assay [7] (setting [21]) is 1.

On to `CN1CCN(CCCN2c3ccccc3Sc3ccc(Cl)cc32)CC1` [Prochlorperazine dimaleate], for which the fold induction at 50 µM in assay [1] (setting [8]) came out at 1.1; in assay [2] (setting [9]) it was 1.1; in assay [3] (setting [10]), 1.2; in assay [4] (setting [11]), 1.6; in assay [5] (setting [12]), 1.2; in assay [6] (setting [13]), 2. Also, the fold induction at 50 µM in assay [7] (setting [14]) amounted to 1.2.

Consider `OC(CCN1CCCC1)(c1ccccc1)C1CCCCC1` (stereo not drawn) [Procyclidine hydrochloride], for which the fold induction at 50 µM in assay [1] (cutoff for positive-scoring molecules 3-fold increase, read-out: AK-based Prestwick Library Screening Results, E. faecium (fold increase in extracellular AK activity)) is 1.1; in assay [2] (cutoff for positive-scoring molecules 3-fold increase, read-out: AK-based Prestwick Library Screening Results, S. aureus (fold increase in extracellular AK activity)), 1.2; in assay [3] (cutoff for positive-scoring molecules 3-fold increase, read-out: AK-based Prestwick Library Screening Results, K. pneumoniae (fold increase in extracellular AK activity)) it was 0.9; in assay [4] (cutoff for positive-scoring molecules 3-fold increase, read-out: AK-based Prestwick Library Screening Results, A. baumannii (fold increase in extracellular AK activity)), 1.1; in assay [5] (cutoff for positive-scoring molecules 3-fold increase, read-out: AK-based Prestwick Library Screening Results, P. aeruginosa (fold increase in extracellular AK activity)), 1.2; in assay [6] (cutoff for positive-scoring molecules 3-fold increase, read-out: AK-based Prestwick Library Screening Results, E. cloacae (fold increase in extracellular AK activity)), 1.8. The fold induction at 50 µM in assay [7] (cutoff for positive-scoring molecules 3-fold increase, read-out: AK-based Prestwick Library Screening Results, E. coli (fold increase in extracellular AK activity)) is 1.4.

Consider `CC(=O)[C@H]1CC[C@H]2[C@@H]3CCC4=CC(=O)CC[C@]4(C)[C@H]3CC[C@]12C` [Progesterone], for which the fold induction at 50 µM in assay [1] (setting [8]) was determined as 1.1; in assay [2] (setting [9]), 1.1; in assay [3] (setting [10]), 1.1; in assay [4] (setting [11]), 1.1; in assay [5] (setting [12]), 1; in assay [6] (setting [13]), 1.7. Besides, the fold induction at 50 µM in assay [7] (setting [14]) was determined as 1.

On to `CCCN(CCC)C(=O)C(CCC(=O)O)NC(=O)c1ccccc1` (stereo not drawn) [Proglumide], for which the fold induction at 50 µM in assay [1] (planktonic E. faecium, 384-well, cutoff for positive-scoring molecules 3-fold increase, read-out: AK-based Prestwick Library Screening Results: E. faecium (increase in extracellular AK activity)) came to 1; in assay [2] (planktonic S. aureus, 384-well, cutoff for positive-scoring molecules 3-fold increase, read-out: AK-based Prestwick Library Screening Results: S. aureus (increase in extracellular AK activity)), 1.1; in assay [3] (planktonic K. pneumoniae, 384-well, cutoff for positive-scoring molecules 3-fold increase, read-out: AK-based Prestwick Library Screening Results: K. pneumoniae (increase in extracellular AK activity)) it was 1.2; in assay [4] (planktonic A. baumannii, 384-well, cutoff for positive-scoring molecules 3-fold increase, read-out: AK-based Prestwick Library Screening Results: A. baumannii (increase in extracellular AK activity)), 1.3; in assay [5] (planktonic P. aeruginosa, 384-well, cutoff for positive-scoring molecules 3-fold increase, read-out: AK-based Prestwick Library Screening Results: P. aeruginosa (increase in extracellular AK activity)), 1.1; in assay [6] (planktonic E. cloacae, 384-well, cutoff for positive-scoring molecules 3-fold increase, read-out: AK-based Prestwick Library Screening Results: E. cloacae (increase in extracellular AK activity)), 1.5. In assay [7] (planktonic E. coli, 384-well, cutoff for positive-scoring molecules 3-fold increase, read-out: AK-based Prestwick Library Screening Results: E. coli (increase in extracellular AK activity)), the fold induction at 50 µM is 1.3.

As for `[H]/N=C(\N/C(=N/[H])Nc1ccc(Cl)cc1)NC(C)C` [Proguanil hydrochloride], the fold induction at 50 µM in assay [1] (setting [15]) is 0.8; in assay [2] (setting [16]) it was 0.9; in assay [3] (setting [17]), 0.7; in assay [4] (setting [18]) it was 0.9; in assay [5] (setting [19]), 0.8; in assay [6] (setting [20]) it was 1.1. The fold induction at 50 µM in assay [7] (setting [21]) worked out at 0.9.
